pEC50: −log10 of the molar value.
System: HBV
Experiment: HBV inhibition assay in HepAD38 cells (extracellular HBV DNA by direct qPCR)
Type: cell-based, Hepatitis B virus
Conditions: Hepatitis B virus, 96 hours; for pEC50: 8-point dose-response curve, read-out: HBV inh EC50
[1] = relative to non-treated reference, read-out: Anti HBV Activity (conc μM)

| Structure (SMILES) | inhibition at 0.1 µM [1] [%] | pEC50 | inhibition at 1 µM (1 μM, relative to non-treated reference, read-out: Anti HBV Activity (conc μM)) [%] | inhibition at 0.5 µM [1] [%] |
| --- | --- | --- | --- | --- |
| C[C@H](N)C(=O)N1C[C@@H]2COc3c(cn(C)c3C(=O)Nc3cc(F)c(F)c(F)c3)S(=O)(=O)N[C@@H]2C1 (mixture of isomers) [Example E67, cis-2-(L-alanyl)-7-methyl-N-(3,4,5-trifluorophenyl)-2,3,3a,4,10,10a-hexahydro-1H,7H-dipyrrolo[3,4-b:3′,4′-f][1,4,5]oxathiazocine-8-carboxamide 5,5-dioxide] | < 50 |  |  |  |
| Cn1cc2c(c1C(=O)Nc1cc(F)c(F)c(F)c1)OC[C@H]1CN(C(=O)[C@@H](N)CO)C[C@H]1NS2(=O)=O (mixture of isomers) [Example E68, cis-2-(L-seryl)-7-methyl-N-(3,4,5-trifluorophenyl)-2,3,3a,4,10,10a-hexahydro-1H,7H-dipyrrolo[3,4-b:3′,4′-f][1,4,5]oxathiazocine-8-carboxamide 5,5-dioxide] | < 50 |  |  |  |
| C[C@@H](O)[C@H](N)C(=O)N1C[C@@H]2COc3c(cn(C)c3C(=O)Nc3cc(F)c(F)c(F)c3)S(=O)(=O)N[C@@H]2C1 (mixture of isomers) [Example E69, cis-2-(L-threonyl)-7-methyl-N-(3,4,5-trifluorophenyl)-2,3,3a,4,10,10a-hexahydro-1H,7H-dipyrrolo[3,4-b:3′,4′-f][1,4,5]oxathiazocine-8-carboxamide 5,5-dioxide] | < 50 |  |  |  |
| CCOC(=O)N1CC2CCOc3c(cn(C)c3C(=O)Nc3cc(F)c(F)c(F)c3)S(=O)(=O)NC2C1 (mixture of isomers) [Example E156, Cis/Trans Ethyl 7-methyl-8-((3,4,5-trifluorophenyl)carbamoyl)-1,3a,4,10,11,11a-hexahydro-7H-dipyrrolo[3,4-b:3′,4′-f][1,4,5]oxathiazocine-2(3H)-carboxylate 5,5-dioxide] |  | > 6.00 |  |  |
| Cn1cc2c(c1C(=O)Nc1ccc(F)c(F)c1)OC1COCC1NS2(=O)=O (racemic) [Example E4, trans-N-(3,4-difluorophenyl)-7-methyl-1,3a,4,9a-tetrahydro-3H,7H-furo[3,4-f]pyrrolo[3,4-b][1,4,5]oxathiazepine-8-carboxamide 5,5-dioxide] |  | > 6.00 | > 50 |  |
| Cn1cc2c(c1C(=O)Nc1ccc(F)c(F)c1)OCC1CCCC1NS2(=O)=O (racemic) [Example E6, cis-N-(3,4-difluorophenyl)-2-methyl-5a,6,7,8,8a,9-hexahydro-2H,5H-cyclopenta[f]pyrrolo[3,4-b][1,4,5]oxathiazocine-1-carboxamide 4,4-dioxide] |  | > 6.00 |  | > 50 |
| Cn1cc2c(c1C(=O)Nc1cc(F)c(F)c(F)c1)OC1COCC1NS2(=O)=O (racemic) [Example E7, trans-7-methyl-N-(3,4,5-trifluorophenyl)-1,3a,4,9a-tetrahydro-3H,7H-furo[3,4-f]pyrrolo[3,4-b][1,4,5]oxathiazepine-8-carboxamide 5,5-dioxide] |  | > 6.00 |  |  |
| CCOC(=O)N1CC2COc3c(cn(C)c3C(=O)Nc3cc(F)c(F)c(F)c3)S(=O)(=O)NC2C1 (racemic) [Example E10, Cis-Ethyl 7-methyl-8-((3,4,5-trifluorophenyl)carbamoyl)-3a,4,10,10a-tetrahydro-1H,7H-dipyrrolo[3,4-b:3′,4′-f][1,4,5]oxathiazocine-2(3H)-carboxylate 5,5-dioxide] |  | > 6.00 |  | > 50 |
| Cn1cc2c(c1C(=O)Nc1cc(F)c(F)c(F)c1)OCC1CNCC1NS2(=O)=O (racemic) [Example E11, cis-7-methyl-N-(3,4,5-trifluorophenyl)-2,3,3a,4,10,10a-hexahydro-1H,7H-dipyrrolo[3,4-b:3′,4′-f][1,4,5]oxathiazocine-8-carboxamide 5,5-dioxide] | > 50 | > 6.00 |  |  |
| CN1CC2COc3c(cn(C)c3C(=O)Nc3cc(F)c(F)c(F)c3)S(=O)(=O)NC2C1 (racemic) [Example E12, cis-2,7-dimethyl-N-(3,4,5-trifluorophenyl)-2,3,3a,4,10,10a-hexahydro-1H,7H-dipyrrolo[3,4-b:3′,4′-f][1,4,5]oxathiazocine-8-carboxamide 5,5-dioxide] | > 50 | > 6.00 |  |  |
| CCOC(=O)N1CC2COc3c(cn(C)c3C(=O)Nc3ccc(F)c(F)c3)S(=O)(=O)NC2C1 (racemic) [Example E13, Cis-Ethyl 8-((3,4-difluorophenyl)carbamoyl)-7-methyl-3a,4,10,10a-tetrahydro-1H,7H-dipyrrolo[3,4-b:3′,4′-f][1,4,5]oxathiazocine-2(3H)-carboxylate 5,5-dioxide] | > 50 | > 6.00 |  |  |
| CCOC(=O)N1CC2COc3c(cn(C)c3C(=O)Nc3ccc(F)c(C)c3)S(=O)(=O)NC2C1 (racemic) [Example E14, Cis-Ethyl 8-((4-fluoro-3-methylphenyl)carbamoyl)-7-methyl-3a,4,10,10a-tetrahydro-1H,7H-dipyrrolo[3,4-b:3′,4′-f][1,4,5]oxathiazocine-2(3H)-carboxylate 5,5-dioxide] | > 50 | > 6.00 |  |  |
| CCOC(=O)N1CC2COc3c(cn(C)c3C(=O)Nc3ccc(F)c(Cl)c3)S(=O)(=O)NC2C1 (racemic) [Example E15, Cis-Ethyl 8-((3-chloro-4-fluorophenyl)carbamoyl)-7-methyl-3a,4,10,10a-tetrahydro-1H,7H-dipyrrolo[3,4-b:3′,4′-f][1,4,5]oxathiazocine-2(3H)-carboxylate 5,5-dioxide] | > 50 | > 6.00 |  |  |
| CCOC(=O)N1CC2COc3c(cn(C)c3C(=O)Nc3ccc(F)c(C(F)F)c3)S(=O)(=O)NC2C1 (racemic) [Example E16, Cis-Ethyl 8-((3-(difluoromethyl)-4-fluorophenyl)carbamoyl)-7-methyl-3a,4,10,10a-tetrahydro-1H,7H-dipyrrolo[3,4-b:3′,4′-f][1,4,5]oxathiazocine-2(3H)-carboxylate 5,5-dioxide] | > 50 | > 6.00 |  |  |
| CCOC(=O)N1CC2COc3c(cn(C)c3C(=O)Nc3ccc(F)c(C#N)c3)S(=O)(=O)NC2C1 (racemic) [Example E17, Cis-Ethyl 8-((3-cyano-4-fluorophenyl)carbamoyl)-7-methyl-3a,4,10,10a-tetrahydro-1H,7H-dipyrrolo[3,4-b:3′,4′-f][1,4,5]oxathiazocine-2(3H)-carboxylate 5,5-dioxide] | > 50 | > 6.00 |  |  |
| CC(C)S(=O)(=O)N1CC2COc3c(cn(C)c3C(=O)Nc3cc(F)c(F)c(F)c3)S(=O)(=O)NC2C1 (racemic) [Example E18, cis-2-(isopropylsulfonyl)-7-methyl-N-(3,4,5-trifluorophenyl)-2,3,3a,4,10,10a-hexahydro-1H,7H-dipyrrolo[3,4-b:3′,4′-f][1,4,5]oxathiazocine-8-carboxamide 5,5-dioxide] | > 50 | > 6.00 |  |  |
| Cn1cc2c(c1C(=O)Nc1cc(F)c(F)c(F)c1)OCC1CN(S(C)(=O)=O)CC1NS2(=O)=O (racemic) [Example E19, cis-7-methyl-2-(methylsulfonyl)-N-(3,4,5-trifluorophenyl)-2,3,3a,4,10,10a-hexahydro-1H,7H-dipyrrolo[3,4-b:3′,4′-f][1,4,5]oxathiazocine-8-carboxamide 5,5-dioxide] | > 50 | > 6.00 |  |  |
| Cn1cc2c(c1C(=O)Nc1cc(F)c(F)c(F)c1)OCC1CN(S(=O)(=O)C3CC3)CC1NS2(=O)=O (racemic) [Example E20, cis-2-(cyclopropylsulfonyl)-7-methyl-N-(3,4,5-trifluorophenyl)-2,3,3a,4,10,10a-hexahydro-1H,7H-dipyrrolo[3,4-b:3′,4′-f][1,4,5]oxathiazocine-8-carboxamide 5,5-dioxide] | > 50 | > 6.00 |  |  |
| CC(C)NS(=O)(=O)N1CC2COc3c(cn(C)c3C(=O)Nc3cc(F)c(F)c(F)c3)S(=O)(=O)NC2C1 (racemic) [Example E21, cis-2-(N-isopropylsulfamoyl)-7-methyl-N-(3,4,5-trifluorophenyl)-2,3,3a,4,10,10a-hexahydro-1H,7H-dipyrrolo[3,4-b:3′,4′-f][1,4,5]oxathiazocine-8-carboxamide 5,5-dioxide] | > 50 | > 6.00 |  |  |
| Cn1cc2c(c1C(=O)Nc1cc(F)c(F)c(F)c1)OCC1CN(C(=O)OC3CO[C@H]4OCC[C@@H]34)CC1NS2(=O)=O (mixture of isomers) [Example E22, cis-(3R,3aS,6aR)-hexahydrofuro[2,3-b]furan-3-yl 7-methyl-8-((3,4,5-trifluorophenyl)carbamoyl)-3a,4,10,10a-tetrahydro-1H,7H-dipyrrolo[3,4-b:3′,4′-f][1,4,5]oxathiazocine-2(3H)-carboxylate 5,5-dioxide] | > 50 | > 6.00 |  |  |
| CNC(=O)N1CC2COc3c(cn(C)c3C(=O)Nc3cc(F)c(F)c(F)c3)S(=O)(=O)NC2C1 (racemic) [Example E23, (3aR,10aR) and (3aS,10aS)—N^2,7-dimethyl-N^8-(3,4,5-trifluorophenyl)-3a,4,10,10a-tetrahydro-1H,7H-dipyrrolo[3,4-b:3′,4′-f][1,4,5]oxathiazocine-2,8(3H)-dicarboxamide 5,5-dioxide] | > 50 | > 6.00 |  |  |
| Cn1cc2c(c1C(=O)Nc1cc(F)c(F)c(F)c1)OCC1CN(C(=O)OC(C)(C)C)CC1NS2(=O)=O (racemic) [Example E24, Tert-Butyl (3aS,10aS and 3aR,10aR) 7-methyl-8-((3,4,5-trifluorophenyl)carbamoyl)-3a,4,10,10a-tetrahydro-1H,7H-dipyrrolo[3,4-b:3′,4′-f][1,4,5]oxathiazocine-2(3H)-carboxylate 5,5-dioxide] | > 50 |  |  |  |
| Cn1cc2c(c1C(=O)Nc1cc(F)c(F)c(F)c1)OCC1CCCC1NS2(=O)=O (racemic) [Example E28, cis (5aR,8aS and 5aS,8aR)-2-methyl-N-(3,4,5-trifluorophenyl)-5a,6,7,8,8a,9-hexahydro-2H,5H-cyclopenta[f]pyrrolo[3,4-b][1,4,5]oxathiazocine-1-carboxamide 4,4-dioxide] | > 50 | > 6.00 |  |  |

Reference: patent publication US11504382B2, “Tricyclic inhibitors of Hepatitis B virus” (Antios Therapeutics, Inc., priority 2018, dated 2022)
